Blank lines part the entries; values can stand above or below the compound they belong to.
Key:
MIA PaCa-2 cells = test: Gemcitabine combination cell assay; type: cell-based
Description: Exponentially growing MIA PaCa-2 (ATCC CRL-1420) cells are treated with trypsin to remove cells from the plate surface. Approximately 10,000 cells/well are plated in 96 well plates in RPMI containing 10% fetal bovine serum, 1% sodium pyruvate and 1% L-GlutaMax. Cells are allowed to adhere to the plate surface overnight. Serial half-log dilutions of Chk1 inhibitor test compounds and gemcitabine are made with a final highest concentration of 3000 nM and 100 nM, respectively. Chk1 inhibitors and gemcitabine are combined so that each concentration of Chk1 inhibitor is added to each concentration of gemcitabine. Each drug is also tested as a single agent. Drugs are added to adherent cells (in duplicate) and incubated for 72h. At 72h the cells are treated with Promega Cell Titer Glo reagent for approximately 15 minutes. Luminescence (relative light units, RLU) is recorded using a BMG Polarstar Omega plate reader. The single agent concentration that results in a 50% reduction in total signal (IC50) is calculated using PRISM software and a four-parameter non-linear regression curve fit. For combination studies the RLUs are plotted using PRISM on an XY plot with the gemcitabine concentration on the X axis and RLU on the Y axis. The RLU for each concentration of Chk1 inhibitor is plotted as a function of gemcitabine concentration. The IC50 for gemcitabine alone and at each concentration of Chk1 is determined using a four-parameter non-linear regression curve fit. The approximate concentration of Chk1 inhibitor that results in a two and ten-fold reduction in the IC50 of gemcitabine alone is calculated as an indication of synergistic potency.

[1] = Solubility of the salts in biorelevant media; type: physicochemical; settings: 25° C., 24 h, HPLC; for solubility FaSSGF (pH 1.37): Fasted State Simulated Gastric Fluid; for solubility FaSSIF (pH 6.71): Fasted State Simulated Intestinal Fluid; for solubility FeSSIF (pH 5.14): Fed State Simulated Intestinal Fluid
Description: Biorelevant media (DI H2O, FeSSIF, FaSSIF and FaSSGF) (2 mL) was charged. Samples were left to equilibrate (25° C.) over 24 h. Solubility measurements were taken using HPLC (see Method 1 above).

[2] = Gravimetric vapour sorption (GVS); type: physicochemical; settings: for GVS weight loss, initial desorption cycle: from 50% RH to 0% RH; for GVS weight loss, initial desorption cycle / GVS water gain, subsequent sorption cycle: 25° C.; for GVS water gain, subsequent sorption cycle: up to 90% RH
Description: Sorption isotherms were obtained using a Hiden Isochema moisture sorption analyser (model IGAsorp), controlled by IGAsorp Systems Software V6.50.48. The sample was maintained at a constant temperature (25° C.) by the instrument controls. The humidity was controlled by mixing streams of dry and wet nitrogen, with a total flow of 250 ml·min−. The instrument was verified for relative humidity (RH) content by measuring three calibrated Rotronic salt solutions (10-50-88%). The weight change of the sample was monitored as a function of humidity by a microbalance (accuracy+/−0.005 mg). A defined amount of sample was placed in a tared mesh stainless steel basket under ambient conditions. A full experimental cycle typically consisted of three scans (sorption, desorption and sorption) at a constant temperature (25° C.) and 10% RH intervals over a 0-90% range (60 minutes for each humidity level).

[3] = Two-week stability (HPLC purity); type: physicochemical
Description: HPLC analysis was carried out on an Agilent 1110/1200 series HPLC system. The column used was an Triart C18; 150×4.6 mm, 3.0 μm particle size (Ex Waters, PN: 186004644). The flow rate was 1.0 mL/min. Mobile phase A was Water:Trifluoroacetic acid (100:0.1%) and mobile phase B was Acetonitrile:Trifluoroacetic acid (100:0.1%). Detection was by UV at 302 nm. The injection volume was 5 μL, column temperature 40° C. and the following gradient was used: […]
Experimental: Maleate salt pattern B (30 mg) was placed into separate 15 mL type I glass vials. To these vials, a HDPE plastic cap was loosely attached to allow the ingress of moisture. The vials were then placed into ICH rated stability cabinets at 25° C./60% RH and 40° C./75% RH and in cold storage at 2-8° C. Following 2 weeks of storage these samples were removed from the stability cabinets and cold storage and the chemical purity assessed by HPLC (method 2). The relevant data was collected using a wavelength of 302 nm. The samples were prepared in MeCN:water (1:1).

[4] = Dynamic vapour sorption (DVS) analysis of maleate salt Pattern B; type: physicochemical
Description: A defined amount of the maleate salt Pattern B was placed in a tared mesh stainless steel basket under ambient conditions. A full experimental cycle consisted of […] (desorption, sorption repeat and desorption) at a constant temperature (25° C.) and 10% RH intervals over a 0-90% range (60 minutes for each humidity level).
Post cycle, the material was isolated at 0% RH and tested for crystallinity and then held at 90% RH for a minimum of 3 hours and re-tested for changes in crystallinity.

IC50 (MIA PaCa-2 cells; Homo sapiens, compound alone, MIA PaCa-2 cells, 72h, Cell Titer Glo, read-out: Chk1 IC50): 144 nM | solubility FaSSGF (pH 1.37) ([1]; listed as free base): 2.93 mg/mL | solubility FaSSIF (pH 6.71) ([1]; listed as free base): 0.04 mg/mL | solubility FeSSIF (pH 5.14) ([1]; listed as free base): 0.6 mg/mL | GVS weight loss, initial desorption cycle ([2]; listed as free base): 2 wt % | GVS water gain, subsequent sorption cycle ([2]; listed as free base): 8% | Aqueous solubility mg/mL 24 h: 0.39 mg/mL
SMILES: COc1cc(C2(F)CCN(C)CC2)ccc1-c1cc(Nc2cnc(C#N)cn2)n[nH]1 [compound of formula (1), 5-[[5-[4-(4-fluoro-1-methyl-4-piperidyl)-2-methoxy-phenyl]-1H-pyrazol-3-yl]amino]pyrazine-2-carbonitrile]
10 × LS (MIA PaCa-2 cells; approximate concentration giving a 10-fold reduction in the IC50 of gemcitabine alone, MIA PaCa-2, 72h): ~100 nM | 2 × LS (MIA PaCa-2 cells; approximate concentration giving a two-fold reduction in the IC50 of gemcitabine alone, MIA PaCa-2, 72h): ~3 nM

solubility FaSSGF (pH 1.37) [1]: 3.97 mg/mL | solubility FaSSIF (pH 6.71) [1]: 0.07 mg/mL | solubility FeSSIF (pH 5.14) [1]: 0.57 mg/mL | HPLC purity (HPLC method 2) ([3]; T = 0): 96.85 | HPLC purity (HPLC method 2) ([3]; T = 2 weeks, 2-8° C.): 96.85 | HPLC purity (HPLC method 2) ([3]; T = 2 weeks, 25° C./60% RH): 96.99 | HPLC purity (HPLC method 2) ([3]; T = 2 weeks, 40° C./75% RH): 96.98 | stability on storage ([3]; two weeks at 25° C./60% RH, 40° C./75% RH and 2-8° C., result in words): stable | GVS weight loss, initial desorption cycle [2]: 2.5 wt % | GVS water gain, subsequent sorption cycle [2]: 4% | DVS moisture associated before the first desorption ([4]; 25° C., ambient start): ca. 2.8 wt % | DVS main increase in weight, first sorption ([4]; between 20 and 30% RH): ca. 2 wt % | Aqueous solubility mg/mL 24 h: 1.4 mg/mL
SMILES: COc1cc(C2(F)CCN(C)CC2)ccc1-c1cc(Nc2cnc(C#N)cn2)n[nH]1 [maleate pattern B, 5-[[5-[4-(4-fluoro-1-methyl-4-piperidyl)-2-methoxy-phenyl]-1H-pyrazol-3-yl]amino]pyrazine-2-carbonitrile]
crystalline form (XRPD) after GVS at extremes of humidity ([2]; 0% RH and 90% RH, result in words): 0% RH converts to pattern A, 90% RH no change | crystalline form (XRPD) after DVS ([4]; isolated at 0% RH, then held at 90% RH, result in words): mixed phase at 0% RH and pattern B at 90% RH

From patent US20240360101A1, “PHARMACEUTICAL SALTS OF A CHK-1 INHIBITOR” (SENTINEL ONCOLOGY LIMITED, priority 2021, published 2024)
